# Results taken from patent US20210189342A1, “COMPOSITIONS AND METHODS FOR MODULATING MONOCYTE AND MACROPHAGE INFLAMMATORY PHENOTYPES AND IMMUNOTHERAPY USES THEREOF” (Verseau Therapeutics, Inc., priority 2018, published 2021).
# Columns and labels:
# tumor tissue slices = test: tumor tissue slice cultures; assay type: cell-based, human; settings: 10 ug/mL
# Excerpt: A second system was used to further confirm the results of the dissociated tumor assays. Briefly, dissociated tumor assays have the advantage of being able to normalize the number of cells in every condition performed. They also have the potential downside of losing the tumor structure and non-cellular stromal components. […] Upon acquisition of fresh tumor tissue sample (less than 24 hrs), surrounding fat, fibrous, and necrotic areas were removed from the tumor sample as much as possible using scissors and scalpels. The tissue was embedded in the center of a tissue mold using 4% agarose. After solidifying, the agarose block was dislodged, and the mold was glued to a Leica VT1000 S microtome tissue holder and sectioned into 300 to 400 micron sections using the Leica VT1000 S microtome. […] At the end of the study, efficacy was evaluated by analyzing cytokine/chemokine amounts secreted into the culture supernatant measured using the Invitrogen™ Luminex™ Cytokine Human Magnetic 25-Plex Panel according to the manufacturer's instructions. […]
# [1] = system: peripheral blood mononuclear cells (PBMCs); assay type: cell-based, human; settings: SEB assay, 5 μg/ml, FIG. 5
# dissociated tumors = test: dissociated tumor assay; assay type: cell-based, human; settings: 10 ug/mL, 24 or 48 hrs, FIG. 8
# Excerpt: One system used for this purpose was a dissociated tumor assay. Dissociated tumors contain all the various cell populations present in the tumor microenvironment, including, for example, tumor cells, immune cells, and support cells. These viable single cell suspensions are useful for many applications and allow for the normalization of cell number and composition within each replicate of an experiment. For performing dissociated tumor experiments upon acquisition of fresh tumor tissue (less than 24 hrs), surrounding fat, fibrous areas, and necrotic areas were removed from a tumor sample using scissors and scalpels. The tumor was cut into small pieces of 2-4 mm^3. The Tumor Dissociation Kit enzyme mix (MACS Miltenyi Biotec) was prepared according to the manufacturer's protocol. Tumor pieces and dissociation enzymes were transferred into 5 ml Snaplock Microcentrifuge tubes and the tissue was minced using a pair of straight scissors. Tubes were placed in a 37° C. shaker at 200-250 rpm for 45 minutes to 1 hour. At the end of the incubation time, the digested tumor was filtered through […] cell strainers into 50 mL Falcon™ conical centrifuge tubes. […] At the end of the study, cytokines/chemokines in the culture supernatant were measured using the Invitrogen™ Luminex™ Cytokine Human Magnetic 25-Plex Panel according to the manufacturer's instructions. […]
# M2 macrophages [2] = test: M2 macrophage polarization, antibodies added only during the last two days, cytokines; assay type: cell-based, human; settings: 10 ug/mL (77, 78, 81-84 at 1 ug/mL), FIGS. 4D-4G
# Experimental: Briefly, monocytes were isolated from whole blood of fresh donors by Ficoll separation with RosetteSep™ Human Monocyte Enrichment Cocktail (Stemcell Techhnologies, Vancouver Canada) according to the manufacturer's instructions. Isolated monocytes were arrayed in 24-well plates overnight in Iscove's Modified Dubelcos Media ([…]) (ThermoFisher) media containing 10% fetal bovine serum and non-adherent cells were washed off after 24 hours. Monocytes were differentiated into macrophages by culturing for 6 days in IMDM 10% FBS plus 50 ng/ml human M-CSF for M2 macrophages, or 50 ng/ml GM-CSF (Biolegend, San Diego, Calif.) for M1 macrophages. M1 macrophages were activated on day 6 with IFN-gamma and LPS, whereas M2 macrophages were polarized on day 6 with 20 ng/ml IL-10 and activated on day 7 with 100 ng/ml LPS. […] Cells were assessed for expression of M1 and M2 markers as described above and cell free supernatants were collected for analysis. Data are representative of at least 3-4 healthy donors.
# Beyond phenotypic surface markers, M1 (such as Type 1) and M2 (such as Type 2) macrophages produce different cytokines and chemokines. For example, M1 macrophages produce more pro-inflammatory cytokines, including but not limited to, GM-CSF, IL-12, and TNF alpha, whereas M2 macrophages produce more pro-tumorigenic and immunosuppressive cytokines, such as VEGF, IL-10, and TGFb. […]
# M2 macrophages [3] = test: macrophage differentiation assay with antibodies, M1 and M2 markers; assay type: cell-based; settings: primary human macrophages under M2 skewing; antibody on day 1, 3 and 7; FIG. 4
# Excerpt: Monocytes were differentiated in vitro to M1-like (Type 1) and/or M2-like (Type 2) phenotypes (Ries et a. (2014) Cancer Cell 25:846-859; Vogel et al. (2014) Immunobiol. 219:695-703). In order to differentiate monocytes into M1 versus M2 phenotypes monocytes were isolated from whole blood of healthy donors by Ficoll separation with RosetteSep™ Human Monocyte Enrichment Cocktail (Stemcell Technologies, Vancouver, Canada) according to the manufacturer's instructions. Isolated monocytes were arrayed in 24-well plates overnight in IMDM Media containing 10% fetal bovine serum and non-adherent cells were washed off after 24 hours. […] Expression of M1 and M2 macrophage markers and surface expressed targets was assessed by flow cytometry. […]
# Labeled cells were washed twice with FACS buffer and fixed with PBS+2% paraformaldehyde for flow cytometry analysis on an Attune™ flow cytometer (ThermoFisher). Data were analyzed via FlowJo software. Morphology was assessed via microscopy.
# Briefly, monocytes were isolated from whole blood of fresh donors by Ficoll separation with RosetteSep™ Human Monocyte Enrichment Cocktail (Stemcell Techhnologies, Vancouver Canada) according to the manufacturer's instructions. […] Cells were assessed for expression of M1 and M2 markers as described above and cell free supernatants were collected for analysis. […]
Molecule,"cytokine response (tumor tissue slices; GI tumor, FIG. 9B)","cytokine response (IFNg, TNFα) (tumor tissue slices; lung tumor, FIG. 9A)",T cell activity (IFNg production) ([1]; donor 2),T cell-specific response as indicated by IFNg production ([1]; donor 5),IFNg production (dissociated tumors),IL-10 production (dissociated tumors),"polarization of M2 macrophages to a more M1-like state, increase in pro-inflammatory cytokines (M2 macrophages [2])","effect on macrophage phenotypic marker sets (classical and novel biomarkers), reversal of skewing towards M2 (M2 macrophages [3])"
pembrolizumab,do not provide a response,showed a response,no increase in T cell activity,increase in T cell-specific response,stimulating IFNg production,induces immunosuppressive IL-10,,
"Ab 8: recombinant human IgG4 (S228P) chimera, kappa light chain; variable regions in Table 6 (antibody, V domains shown, human IgG4 S228P constant regions) VH: QVQLQQSGPGLVKPSQTLSLTCAISGDSVSSNIAAWHWIRLSPSRGLEWLGRTYYRRSKWNYDYALSVKSRININPDTSKNLFSLQLNSVTPEDTAVYYCTRGGGRAHSAWGQGTLVTVSS VL: EIVLTQSPGTLSVSPGERATLSCRASQSVSRSHLAWYQQKPGQAPRLLIFGASSRATGIPDRFSGSGSGTDFTLTISRLEPEDFAVYYCQQYGRPGVTFGQGTKVEIK",,,,,,,dramatically effect polarization of M2 macrophages to a more M1-like state,dose-titratable effect
"Ab 18: recombinant human IgG4 (S228P) chimera, lambda light chain; variable regions in Table 6 (antibody, V domains shown, human IgG4 S228P constant regions) VH: EVQLLESGGGLVRPGGSLRLSCAASGFTFSSYAMSWVRQAPGKGLEWVSAISGSGGSTYYADSVKGRFTISRDNSKNTLYLQMNSLRAEDTAVYYCARDKRLTYWGQGTMVTVSS VL: QSVVTQPPSVSAAPGQKVTISCSGSSSNIGNNYVSWYQQLPGTAPKLLIYDNNKRPSGIPDRFSGSKSGTSATLGITGLQTGDEADYYCGTWDSSLSARVFGGGTKVTVL",,,,,,,dramatically effect polarization of M2 macrophages to a more M1-like state,dose-titratable effect
